Measured values taken from patent US7772228B2, “Method for treatment of bacterial infections with once or twice-weekly administered rifalazil” (priority 1998, dated 2010).
≈ marks a conversion by molar mass, not a printed value. Read-outs that look alike come from different tables or passages of the source.

Tests used:
[1] = tested on: M. tuberculosis strain Erdman; settings: cited from earlier work; for reduction of bacterial load in lungs and spleens, comparison of drugs: 20 mg/kg, five times per week for four weeks
[2] = tested on: M. tuberculosis; assay: Clinical trial 005, change in Log10 CFU/mL of sputum of tuberculosis patients; type: in vivo, human; settings: INH 400 mg daily, N 6
Procedure: Dosages of isoniazid and rifampin were adjusted to body weight of patients. […] When the patient's body weight was greater than 45 kg, isoniazid was administered as 600 mg/dose.
(§1) Definite diagnosis and evaluation of treatment efficacy requires direct examination of sputum for the presence of M. tuberculosis. The extent of M. tuberculosis infection is determined by number of bacteria able to form colonies and is expressed as colony forming units. When the number of colony forming units (CFU) is high, the infection is unhindered. When the CFU decreases, the number of active M. tuberculosis bacteria decreases. The CFU, typically expressed as Log10, have therefore important diagnostic and treatment evaluative value.
Dosages of isoniazid and rifampin depended on the patient's weight and were as above. The number of patients in each study group are presented as the N value.
(§2) The overall clinical studies and conditions were similar to those described in Example 1. Due to ethical considerations, there were no placebo (control) patients in this study. […] Both latest regimens were experimental and performed under IND permit from FDA.

[3] = Clinical trial 005, WBC, ANC and platelet counts in tuberculosis patients; type: in vivo, human; settings: INH daily
Procedure: as §1
The four tables 17-20 show hematology data which are separated according to Groups 1-4. The group treatment corresponds to those seen in Table 16. […] In particular, the ANC value is considered to be a very meaningful safety index as it directly relates to a patient's ability to fight infection.
as §2

[4] = tested on: M. tuberculosis; settings: BACTEC, cited from earlier work; for MIC50 50% inhibition / MIC90 90% inhibition: thirty clinical isolates
[5] = in vivo; cited from earlier work
[6] = tested on: M. avium; settings: 18 strains, agar dilution; cited from earlier work
[7] = tested on: M. tuberculosis; settings: 22 strains, agar dilution; cited from earlier work
[8] = tested on: M. tuberculosis in human macrophages; settings: intracellular, cited from earlier work
[9] = tested on: extracellular M. tuberculosis; settings: cited from earlier work
[10] = tested on: Helicobacter pylori; design: unit of the concentration uncertain; settings: time-kill, broth medium, 0.31 (unit uncertain); cited from earlier work

Compound: CC[C@@H](CO)NCCN[C@@H](CC)CO [EMB, ethambutol]
- cell counts in lungs compared to late controls ([1]; four weeks treatment): reduced cell counts in lungs

Compound: NNC(=O)c1ccncc1 [INH, isoniazid]
- Change from Sputum Baseline to Day 15, Max [2]: −0.92 Log10 CFU/mL
- Change from Sputum Baseline to Day 15, Mean (SD) [2]: −1.58 Log10 CFU/mL
- Change from Sputum Baseline to Day 15, Med [2]: −1.63 Log10 CFU/mL
- Change from Sputum Baseline to Day 15, Min [2]: −2.23 Log10 CFU/mL
- ANC Max ([3]; Day 4): 22.51 K/CU MM
- ANC Mean (SD) ([3]; Day 4): 7.62 K/CU MM
- ANC Med ([3]; Day 4): 5.47 K/CU MM
- ANC Min ([3]; Day 4): 3.79 K/CU MM
- Platelets Max ([3]; Day 4): 431.70 K/CU MM
- Platelets Mean (SD) ([3]; Day 4): 309.38 K/CU MM
- Platelets Med ([3]; Day 4): 305.56 K/CU MM
- Platelets Min ([3]; Day 4): 153.70 K/CU MM
- WBC Max ([3]; Day 4): 27.19 K/CU MM
- WBC Mean (SD) ([3]; Day 4): 10.88 K/CU MM
- WBC Med ([3]; Day 4): 8.81 K/CU MM
- WBC Min ([3]; Day 4): 6.37 K/CU MM
- ANC Max ([3]; Day 8): 9.32 K/CU MM
- ANC Mean (SD) ([3]; Day 8): 5.96 K/CU MM
- ANC Med ([3]; Day 8): 5.22 K/CU MM
- ANC Min ([3]; Day 8): 3.34 K/CU MM
- Platelets Max ([3]; Day 8): 396.20 K/CU MM
- Platelets Mean (SD) ([3]; Day 8): 310.13 K/CU MM
- Platelets Med ([3]; Day 8): 357.20 K/CU MM
- Platelets Min ([3]; Day 8): 185.60 K/CU MM
- WBC Max ([3]; Day 8): 12.06 K/CU MM
- WBC Mean (SD) ([3]; Day 8): 9.08 K/CU MM
- WBC Med ([3]; Day 8): 8.63 K/CU MM
- WBC Min ([3]; Day 8): 6.21 K/CU MM
- ANC Max ([3]; Day 11): 6.57 K/CU MM
- ANC Mean (SD) ([3]; Day 11): 5.29 K/CU MM
- ANC Med ([3]; Day 11): 5.06 K/CU MM
- ANC Min ([3]; Day 11): 4.17 K/CU MM
- Platelets Max ([3]; Day 11): 447.50 K/CU MM
- Platelets Mean (SD) ([3]; Day 11): 336.10 K/CU MM
- Platelets Med ([3]; Day 11): 354.20 K/CU MM
- Platelets Min ([3]; Day 11): 208.10 K/CU MM
- WBC Max ([3]; Day 11): 10.03 K/CU MM
- WBC Mean (SD) ([3]; Day 11): 8.29 K/CU MM
- WBC Med ([3]; Day 11): 8.10 K/CU MM
- WBC Min ([3]; Day 11): 7.27 K/CU MM
- ANC Max ([3]; Day 15): 8.84 K/CU MM
- ANC Mean (SD) ([3]; Day 15): 5.95 K/CU MM
- ANC Med ([3]; Day 15): 6.04 K/CU MM
- ANC Min ([3]; Day 15): 3.51 K/CU MM
- Platelets Max ([3]; Day 15): 412.70 K/CU MM
- Platelets Mean (SD) ([3]; Day 15): 298.59 K/CU MM
- Platelets Med ([3]; Day 15): 302.00 K/CU MM
- Platelets Min ([3]; Day 15): 184.60 K/CU MM
- WBC Max ([3]; Day 15): 12.40 K/CU MM
- WBC Mean (SD) ([3]; Day 15): 9.23 K/CU MM
- WBC Med ([3]; Day 15): 8.49 K/CU MM
- WBC Min ([3]; Day 15): 6.82 K/CU MM
- ANC Max ([3]; Day 28): 7.87 K/CU MM
- ANC Mean (SD) ([3]; Day 28): 5.63 K/CU MM
- ANC Med ([3]; Day 28): 4.60 K/CU MM
- ANC Min ([3]; Day 28): 4.41 K/CU MM
- Platelets Max ([3]; Day 28): 398.80 K/CU MM
- Platelets Mean (SD) ([3]; Day 28): 297.27 K/CU MM
- Platelets Med ([3]; Day 28): 266.00 K/CU MM
- Platelets Min ([3]; Day 28): 197.00 K/CU MM
- WBC Max ([3]; Day 28): 11.15 K/CU MM
- WBC Mean (SD) ([3]; Day 28): 8.31 K/CU MM
- WBC Med ([3]; Day 28): 7.06 K/CU MM
- WBC Min ([3]; Day 28): 6.70 K/CU MM
- ANC Max ([3]; Day 42): 7.2 K/CU MM
- ANC Mean (SD) ([3]; Day 42): 6.96 K/CU MM
- ANC Med ([3]; Day 42): 6.96 K/CU MM
- ANC Min ([3]; Day 42): 6.72 K/CU MM
- Platelets Max ([3]; Day 42): 345.00 K/CU MM
- Platelets Mean (SD) ([3]; Day 42): 297.10 K/CU MM
- Platelets Med ([3]; Day 42): 297.10 K/CU MM
- Platelets Min ([3]; Day 42): 249.20 K/CU MM
- WBC Max ([3]; Day 42): 9.23 K/CU MM
- WBC Mean (SD) ([3]; Day 42): 7.98 K/CU MM
- WBC Med ([3]; Day 42): 7.98 K/CU MM
- WBC Min ([3]; Day 42): 6.73 K/CU MM
- cell counts in lungs compared to early controls ([1]; four weeks treatment): significantly reduced cell counts in lungs
- cell counts in lungs compared to late controls ([1]; four weeks treatment): reduced cell counts in lungs

Compound: C[C@H]1COc2c(N3CCN(C)CC3)c(F)cc3c(=O)c(C(=O)O)cn1c23 [LEV]
- cell counts in lungs compared to late controls ([1]; four weeks treatment): reduced cell counts in lungs

Compound: NC(=O)c1cnccn1 [PZA, pyrazinamide]
- CFUs in the spleen ([1]; rifalazil 20 mg/kg, PZA 150 mg/kg, four weeks): did not significantly reduce CFUs compared to controls

Compound: CO[C@H]1/C=C/O[C@@]2(C)Oc3c(C)c(O)c4c(c3C2=O)C2=NC3(CCN(CC(C)C)CC3)NC2=C(NC(=O)/C(C)=C\C=C\[C@H](C)[C@H](O)[C@@H](C)[C@@H](O)[C@@H](C)[C@H](OC(C)=O)[C@@H]1C)C4=O [Rifabutin, rifabutin, reference compound]
- MIC ([4]; reference strain H37Rv): 0.016 µg/mL (≈ 0.0189 µM)
- MIC ([4]; reference strain Kurono): 0.016 µg/mL (≈ 0.0189 µM)
- MIC50 50% inhibition [4]: 0.063 µg/mL (≈ 0.0744 µM)
- MIC90 90% inhibition [4]: 8.0 µg/mL (≈ 9.44 µM)
- reduction of bacterial load in lungs and spleens, comparison of drugs [1]: No significant differences
- adverse reactions at high doses [5]: generalized arthralgia and uveitis occurred
- incidence of neutropenia [5]: significantly greater than in patients treated with placebo
- skin discoloration [5]: < 1%

Compound: CO[C@H]1/C=C/O[C@@]2(C)Oc3c(C)c(O)c4c(O)c(c(/C=N/N5CCN(C)CC5)c(O)c4c3C2=O)NC(=O)/C(C)=C\C=C\[C@H](C)[C@H](O)[C@@H](C)[C@@H](O)[C@@H](C)[C@H](OC(C)=O)[C@@H]1C [Rifampin, rifampin, reference compound]
- MIC90 [6]: 100 µg/mL (≈ 122 µM)
- MIC90 [7]: 100 µg/mL (≈ 122 µM)
- MIC ([4]; reference strain Kurono): 0.063 µg/mL (≈ 0.0766 µM)
- MIC50 50% inhibition [4]: 4.0 µg/mL (≈ 4.86 µM)
- MIC90 90% inhibition [4]: >128.0 µg/mL
- MBC ([8]; strain Atencio): 0.5 µg/mL (≈ 0.608 µM)
- MIC ([8]; strain Atencio): 0.25 µg/mL (≈ 0.304 µM)
- MBC ([8]; strain Erdman): 0.5 µg/mL (≈ 0.608 µM)
- MIC ([8]; strain Erdman): 0.12 µg/mL (≈ 0.146 µM)
- MBC ([8]; strain H37Rv): 1.0 µg/mL (≈ 1.22 µM)
- MIC ([8]; strain H37Rv): 0.25 µg/mL (≈ 0.304 µM)
- MBC ([9]; strain Atencio): 0.25 µg/mL (≈ 0.304 µM)
- MIC ([9]; strain Atencio): 0.25 µg/mL (≈ 0.304 µM)
- MBC ([9]; strain Erdman): 0.5 µg/mL (≈ 0.608 µM)
- MIC ([9]; strain Erdman): 0.12 µg/mL (≈ 0.146 µM)
- MBC ([9]; strain H37Rv): 0.5 µg/mL (≈ 0.608 µM)
- MIC ([9]; strain H37Rv): 0.12 µg/mL (≈ 0.146 µM)
- reduction of bacterial load in lungs and spleens, comparison of drugs [1]: No significant differences

Compound: CC1(C)S[C@@H]2[C@H](NC(=O)[C@H](N)c3ccc(O)cc3)C(=O)N2[C@H]1C(=O)O [amoxicillin, reference compound]
- decrease in CFU/mL after 24 hours [10]: 1 log
